Structures are written as SMILES. Some results are limits rather than exact numbers.

PAD4 enzyme, sequence (Q9UM07 whole entry): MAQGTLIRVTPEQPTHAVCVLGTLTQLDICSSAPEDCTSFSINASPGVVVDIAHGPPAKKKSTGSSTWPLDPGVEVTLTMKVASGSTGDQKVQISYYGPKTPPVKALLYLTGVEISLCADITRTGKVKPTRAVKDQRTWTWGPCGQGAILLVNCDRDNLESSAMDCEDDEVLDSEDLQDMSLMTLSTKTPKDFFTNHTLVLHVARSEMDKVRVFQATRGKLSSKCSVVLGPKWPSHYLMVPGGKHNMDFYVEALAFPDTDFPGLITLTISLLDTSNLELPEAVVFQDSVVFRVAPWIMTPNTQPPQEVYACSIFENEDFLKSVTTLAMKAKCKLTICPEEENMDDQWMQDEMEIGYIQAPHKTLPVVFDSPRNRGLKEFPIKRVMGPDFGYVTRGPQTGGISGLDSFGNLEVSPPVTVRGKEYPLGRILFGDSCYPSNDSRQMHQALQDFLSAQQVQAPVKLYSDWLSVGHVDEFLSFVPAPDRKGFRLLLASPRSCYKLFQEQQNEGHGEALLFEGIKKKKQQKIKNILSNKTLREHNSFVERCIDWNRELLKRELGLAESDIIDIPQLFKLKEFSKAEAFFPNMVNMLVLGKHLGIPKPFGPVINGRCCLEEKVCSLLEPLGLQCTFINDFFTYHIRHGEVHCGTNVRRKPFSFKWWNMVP

This assay has as its target PAD4 enzyme (Homo sapiens (Human), UniProt Q9UM07). The assay can be described thus: Ammonia Release Biochemical Assay (citrullination detected via ammonia release). The following applies: PAD4 120 nM, substrate BAEE, 60-min preincubation, read-out: NH3 release. How it is done:
Ammonia Release Biochemical Assay
Citrullination assay was detected via ammonia release. PAD4 enzyme was diluted to 120 nM in assay buffer (100 mM HEPES, 50 mM NaCl, 2 mM DDT, 0.6 mg/mL BSA, pH 7.4) added to wells containing various concentration of compound or DMSO vehicle (1% final) in black 384 well plate. Following a 60-min preincubation at room temperature, the reaction was initiated by the addition of substrate (1.5 mM BAEE in 200 mM HEPES, 50 mM NaCl, 350 uM CaCl2, 2 mM, pH 7.4). The reaction was stopped after 60 min by addition of stop/detection buffer containing 50 mM EDTA, 2.6 mM of o-phthaladehyde and 2.6 mM DTT. Assay was incubated at room temperature for 90 min before measuring fluorescence's (λex 405/λem 460 nm) on Tecan reader. IC50 was calculated using XL-fit software model 205. (Ref: Nat Chem Biol. 2015 March; 11(3):189-91).
Regarding `CCOCCS(=O)(=O)N1CCn2c(-c3cc4ccccc4n3CC3CC3)nc3cc(C(=O)N4CCC[C@@H](N)C4)cc1c32` [Example 83, (R)-(3-aminopiperidin-1-yl)(2-(1-(cyclopropylmethyl)-1H-indol-2-yl)-6-((2-ethoxyethyl)sulfonyl)-5,6-dihydro-4H-imidazo[1,5,4-de]quinoxalin-8-yl)methanone], the IC50 was in the range of 1000 to 10000 nM.
As for `N[C@@H]1CCCN(C(=O)c2cc3c4c(c2)nc(-c2cc5ccccc5n2CC2CC2)n4CCN3C2CC2)C1` [Example 78, (R)-(3-aminopiperidin-1-yl)(6-cyclopropyl-2-(1-(cyclopropylmethyl)-1H-indol-2-yl)-5,6-dihydro-4H-imidazo[1,5,4-de]quinoxalin-8-yl)methanone], the IC50 is not above 1000 nM.
In the case of `N[C@@H]1CCCN(C(=O)c2cc3c4c(c2)nc(-c2cc5cc(F)c(F)cc5n2CC2CC2)n4CCO3)C1` [Example 32, (R)-(3-aminopiperidin-1-yl)(2-(1-(cyclopropylmethyl)-5,6-difluoro-1H-indol-2-yl)-3,4-dihydro-5-oxa-1,2a-diazaacenaphthylen-7-yl)methanone], the IC50 was not above 1000 nM.
As to `N[C@@H]1CCCN(C(=O)c2cc3c4c(c2)nc(-c2cc5ccccc5n2Cc2ncccn2)n4CCO3)C1` [Example 27, (R)-(3-aminopiperidin-1-yl)(2-(1-(pyrimidin-2-ylmethyl)-1H-indol-2-yl)-3,4-dihydro-5-oxa-1,2a-diazaacenaphthylen-7-yl)methanone], the IC50 was not above 1000 nM.
As for `N[C@@H]1CCN(C(=O)c2cc3c4c(c2)nc(-c2cc5ccccc5n2CC2CC2)n4CCO3)C1` [Example 2, (R)-(3-aminopyrrolidin-1-yl)(2-(1-(cyclopropylmethyl)-1H-indol-2-yl)-3,4-dihydro-5-oxa-1,2a-diazaacenaphthylen-7-yl)methanone], the figure is 1000 to 10000 nM; as for `Cc1cccc2cc(-c3nc4cc(C(=O)N5CCC[C@@H](N)C5)cc5c4n3CCN5)n(CC3CC3)c12` [Example 84, (R)-(3-aminopiperidin-1-yl)(2-(1-(cyclopropylmethyl)-7-methyl-1H-indol-2-yl)-5,6-dihydro-4H-imidazo [1,5,4-de]quinoxalin-8-yl)methanone], not above 1000 nM; as for `COCCn1c(-c2nc3cc(C(=O)N4CCC[C@@H](N)C4)cc4c3n2CCO4)cc2ccc(OC)cc21` [Example 21, (R)-(3-aminopiperidin-1-yl)(2-(6-methoxy-1-(2-methoxyethyl)-1H-indol-2-yl)-3,4-dihydro-5-oxa-1,2a-diazaacenaphthylen-7-yl)methanone], not above 1000 nM.
`N[C@@H]1CCCN(C(=O)c2cc3c4c(c2)nc(-c2cc5ccccc5n2Cc2ccccc2F)n4CCN3)C1` [Example 70, (R)-(3-aminopiperidin-1-yl)(2-(1-(2-fluorobenzyl)-1H-indol-2-yl)-5,6-dihydro-4H-imidazo[1,5,4-de]quinoxalin-8-yl)methanone]: the IC50 was not above 1000 nM.
As for `N[C@@H]1CCCN(C(=O)c2cc3c4c(c2)nc(-c2cc5ccccc5n2CC2CC2)n4CCCO3)C1` [Example 6, (R)-(3-aminopiperidin-1-yl)(1-(1-(cyclopropylmethyl)-1H-indol-2-yl)-8,9-dihydro-7H-6-oxa-2,9a-diazabenzo[cd]azulen-4-yl)methanone], the figure is 1000 to 10000 nM.
Turning to `COc1ccc(Cn2c(-c3nc4cc(C(=O)N5CCC[C@@H](N)C5)cc5c4n3CCO5)cc3ccc(F)cc32)cc1` [Example 50, (R)-(3-aminopiperidin-1-yl)(2-(6-fluoro-1-(4-methoxybenzyl)-1H-indol-2-yl)-3,4-dihydro-5-oxa-1,2a-diazaacenaphthylen-7-yl)methanone], the IC50 was not above 1000 nM.
`CN1CCC(Cn2c(-c3nc4cc(C(=O)N5CCC[C@@H](N)C5)cc5c4n3CCO5)cc3ccccc32)CC1` [Example 45, (R)-(3-aminopiperidin-1-yl)(2-(1-((l-methylpiperidin-4-yl)methyl)-1H-indol-2-yl)-3,4-dihydro-5-oxa-1,2a-diazaacenaphthylen-7-yl)methanone]: the IC50 is not below 10000 nM.
Turning to `COc1ccc(Cn2c(-c3nc4cc(C(=O)N5CCC[C@@H](N)C5)cc5c4n3CCO5)cc3cc(F)ccc32)cc1` [Example 46, (R)-(3-aminopiperidin-1-yl)(2-(5-fluoro-1-(4-methoxybenzyl)-1H-indol-2-yl)-3,4-dihydro-5-oxa-1,2a-diazaacenaphthylen-7-yl)methanone], the IC50 is not above 1000 nM.
Turning to `N[C@@H]1CCCN(C(=O)c2cc3c4c(c2)nc(-c2cc5ccccc5n2Cc2cccnn2)n4CCO3)C1` [Example 30, (R)-(3-aminopiperidin-1-yl)(2-(1-(pyridazin-3-ylmethyl)-1H-indol-2-yl)-3,4-dihydro-5-oxa-1,2a-diazaacenaphthylen-7-yl)methanone], the IC50 lay in the range of 1000 to 10000 nM.
Take `COCCn1c(-c2nc3cc(C(=O)N4CCC[C@@H](N)C4)cc4c3n2CCO4)cc2cc(F)ccc21` [Example 48, (R)-(3-aminopiperidin-1-yl)(2-(5-fluoro-1-(2-methoxyethyl)-1H-indol-2-yl)-3,4-dihydro-5-oxa-1,2a-diazaacenaphthylen-7-yl)methanone]: the IC50 was not above 1000 nM.
`N[C@@H]1CCCN(C(=O)c2cc3c4c(c2)nc(-c2cc5ccccc5n2CC2COC2)n4CCO3)C1` [Example 44, (R)-(3-aminopiperidin-1-yl)(2-(1-(oxetan-3-ylmethyl)-1H-indol-2-yl)-3,4-dihydro-5-oxa-1,2a-diazaacenaphthylen-7-yl)methanone]: the IC50 fell in the range of 1000 to 10000 nM.
As for `N[C@@H]1CCCN(C(=O)c2cc3c4c(c2)nc(-c2cc5ccccc5n2Cc2cnccn2)n4CCO3)C1` [Example 25, (R)-(3-aminopiperidin-1-yl)(2-(1-(pyrazin-2-ylmethyl)-1H-indol-2-yl)-3,4-dihydro-5-oxa-1,2a-diazaacenaphthylen-7-yl)methanone], the IC50 is not above 1000 nM.
As for `N[C@@H]1CCCN(C(=O)c2cc3c4c(c2)nc(-c2cc5ccc(CO)cc5n2CC2CC2)n4CCO3)C1` [Example 61, (R)-(3-aminopiperidin-1-yl)(2-(1-(cyclopropylmethyl)-6-(hydroxymethyl)-1H-indol-2-yl)-3,4-dihydro-5-oxa-1,2a-diazaacenaphthylen-7-yl)methanone], the IC50 is not above 1000 nM.
As for `CC(C)Cn1c(-c2nc3cc(C(=O)N4CCC[C@@H](N)C4)cc4c3n2CCO4)cc2ccccc21` [Example 31, (R)-(3-aminopiperidin-1-yl)(2-(1-isobutyl-1H-indol-2-yl)-3,4-dihydro-5-oxa-1,2a-diazaacenaphthylen-7-yl)methanone], the figure is not above 1000 nM; as for `COCCn1c(-c2nc3cc(C(=O)N4CCC[C@@H](N)C4)cc4c3n2CCO4)cc2cc(F)c(F)cc21` [Example 54, (R)-(3-aminopiperidin-1-yl)(2-(5,6-difluoro-1-(2-methoxyethyl)-1H-indol-2-yl)-3,4-dihydro-5-oxa-1,2a-diazaacenaphthylen-7-yl)methanone], 1000 to 10000 nM.
Consider `N[C@@H]1CCCN(C(=O)c2cc3c4c(c2)nc(-c2cc5cccc(Cl)c5n2CC2CC2)n4CCO3)C1` [Example 57, (R)-(3-aminopiperidin-1-yl)(2-(7-chloro-1-(cyclopropylmethyl)-1H-indol-2-yl)-3,4-dihydro-5-oxa-1,2a-diazaacenaphthylen-7-yl)methanone], for which the IC50 is not above 1000 nM.
Regarding `N[C@@H]1CCCN(C(=O)c2cc3c4c(c2)nc(-c2cc5ccccc5n2Cc2ccncc2)n4CCN3)C1` [Example 71, (R)-(3-aminopiperidin-1-yl)(2-(1-(pyridin-4-ylmethyl)-1H-indol-2-yl)-5,6-dihydro-4H-imidazo[1,5,4-de]quinoxalin-8-yl)methanone], the IC50 is not above 1000 nM.
On to `CC(C)Cn1c(-c2nc3cc(C(=O)N4CCC[C@@H](N)C4)cc4c3n2CCO4)cc2cccc(Cl)c21` [Example 55, (R)-(3-aminopiperidin-1-yl)(2-(7-chloro-1-isobutyl-1H-indol-2-yl)-3,4-dihydro-5-oxa-1,2a-diazaacenaphthylen-7-yl)methanone], for which the IC50 is not above 1000 nM.
`N[C@@H]1CCN(C(=O)c2cc3c4c(c2)nc(-c2cc5ccccc5n2CC2CC2)n4CCCO3)C1` [Example 7, (R)-(3-aminopyrrolidin-1-yl)(1-(1-(cyclopropylmethyl)-1H-indol-2-yl)-8,9-dihydro-7H-6-oxa-2,9a-diazabenzo[cd]azulen-4-yl)methanone]: the IC50 was in the range of 1000 to 10000 nM.
For `N[C@@H]1CCCN(C(=O)c2cc3c4c(c2)nc(-c2cc5c(F)cccc5n2CC2CC2)n4CCN3)C1` [Example 80, (R)-(3-aminopiperidin-1-yl)(2-(1-(cyclopropylmethyl)-4-fluoro-1H-indol-2-yl)-5,6-dihydro-4H-imidazo[1,5,4-de]quinoxalin-8-yl)methanone], the IC50 was 1000 to 10000 nM.
Consider `N[C@@H]1CCCN(C(=O)c2cc3c4c(c2)nc(-c2cc5cccc(Cl)c5n2CC(F)F)n4CCO3)C1` [Example 56, (R)-(3-aminopiperidin-1-yl)(2-(7-chloro-1-(2,2-difluoroethyl)-1H-indol-2-yl)-3,4-dihydro-5-oxa-1,2a-diazaacenaphthylen-7-yl)methanone], for which the IC50 was not above 1000 nM.
As for `N[C@@H]1CCCN(C(=O)c2cc3c4c(c2)nc(-c2cc5ccccc5n2CC2CC2)n4CCN3S(=O)(=O)C2CC2)C1` [Example 82, (R)-(3-aminopiperidin-1-yl)(2-(1-(cyclopropylmethyl)-1H-indol-2-yl)-6-(cyclopropylsulfonyl)-5,6-dihydro-4H-imidazo[1,5,4-de]quinoxalin-8-yl)methanone], the figure is 1000 to 10000 nM.
